The values below come from patent US8859588B2, “Substituted N-heteroaryl bipyrrolidine carboxamides, preparation and therapeutic use thereof” (SANOFI, priority 2010, dated 2014).

One may read the Ki as the dissociation constant of the complex between target and ligand, obtained from inhibition or displacement.

The target in this test is T1, rhesus (Macacca Mulatta) H3 receptor (Macaca mulatta, UniProt Q865E1).
T1 construct: rhesus monkey (Macacca Mulatta) 445 amino acid H3 receptor; (Genbank #AY231164); expressed in transfected cells; host or cells: Flp-In T-REx 293 Cell Line (Invitrogen), pcDNA5/FRT/TO vector, induced with tetracycline; membrane preparation
T1 sequence (Q865E1 1-445): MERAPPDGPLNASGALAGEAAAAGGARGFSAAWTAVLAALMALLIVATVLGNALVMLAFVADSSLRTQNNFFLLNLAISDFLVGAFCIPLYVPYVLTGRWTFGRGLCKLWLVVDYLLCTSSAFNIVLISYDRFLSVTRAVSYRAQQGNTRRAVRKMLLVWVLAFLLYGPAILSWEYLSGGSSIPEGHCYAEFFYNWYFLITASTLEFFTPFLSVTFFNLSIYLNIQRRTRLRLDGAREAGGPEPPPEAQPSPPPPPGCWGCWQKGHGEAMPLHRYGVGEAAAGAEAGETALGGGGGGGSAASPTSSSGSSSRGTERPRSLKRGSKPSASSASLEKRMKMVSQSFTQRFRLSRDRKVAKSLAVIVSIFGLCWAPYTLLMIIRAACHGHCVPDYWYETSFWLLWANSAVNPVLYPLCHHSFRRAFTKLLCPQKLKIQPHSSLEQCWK
Briefly: Rhesus H3 radioligand binding assay ([3H]-Methylhistamine displacement, WGA SPA). Also on record: species or system rhesus monkey (Macacca Mulatta). Particulars: [3H]-Methylhistamine 2 nM; rhesus H3 membranes from Flp-In T-REx 293 cells; 25° C., 1 hour; Ki by Cheng-Prusoff equation. Here is the method:
Rhesus H3 membranes were prepared from the Flp-In T-REx 293 Cell Line (Invitrogen) stably transfected with pcDNA5/FRT/TO (Invitrogen) containing the rhesus monkey (Macacca Mulatta) 445 amino acid H3 receptor. (Genbank #AY231164). Stably transfected cultures were amplified in tissue culture flasks by standard tissue culture methods and induced to express rhesus H3 by exposure to 500 ng/ml tetracycline (Cellgro) for 24 hours. After induction, cells were dissociated from flasks utilizing Cell Stripper (Cellgro). Cells were centrifuged (1K×g, 5 min) and pellet frozen in an ethanol-dry ice bath to disrupt cell membranes. Frozen cell pellet was re-suspended in 5 mM HEPES (pH 7.4, Invitrogen) at 10 ml/1000 cm2 of harvested cells. The cell suspension was drawn through an 18 gauge needle (2-3×) followed by a 23 gauge needle (2-3×) to further disrupt cell membranes. The cell suspension was centrifuged (40K×g, 30 min). Cell membrane pellet was re-suspended in 5 mM HEPES (pH 7.4, Invitrogen) at a final protein concentration of 10 mg/ml. Rhesus H3 membranes were stored under liquid nitrogen prior to use in [3H]-Methylhistamine and GTPγS radioligand binding assays.
Rhesus H3 radioligand binding assay was performed using rhesus H3 receptor membranes (prepared as described above), [3H]-Methylhistamine (Perkin Elmer) and WGA SPA beads (wheat germ agglutinin scintillation proximity assay) beads (Amersham). The assay was performed in 96-well Opti-Plates (Packard). Each reaction contained 50 μl rhesus H3 membranes (20-30 μg total protein), 50 μl WGA SPA beads (0.1 μg) and 50 μl of 83 Ci/mmol [^3H]-Methylhistamine (final concentration 2 nM) and 50 μl of tested compound. The compounds of this invention and/or vehicle were diluted with binding buffer from 10 mM DMSO stocks. Assay plates were sealed with TopSeal (Perkin Elmer) and mixed on shaker (25° C., 1 hour). Assay plates were read on TopCount scintillation counter (Packard). Results were analyzed by Hill transformation and Ki values were determined by Cheng-Prusoff equation.
`Cc1nc(N2CC[C@H](N3CCC[C@@H]3C)C2)ccc1NC(=O)c1ccccc1` [Example 7, N-[2-Methyl-6-((2S,3′S)-2-methyl-[1,3′]bipyrrolidinyl-1′-yl)-pyridin-3-yl]-benzamide] yielded an inhibition constant (Ki) of 8.09 nM.
As to `Cc1nc(N2CC[C@H](N3CCC[C@@H]3C)C2)ccc1NS(=O)(=O)C1CCCCC1` [Example 5, Cyclohexanesulfonic acid [2-methyl-6-((2S,3′S)-2-methyl-[1,3′]bipyrrolidinyl-1′-yl)-pyridin-3-yl]-amide], the Ki is 26.3 nM.
Under `Cc1nc(N2CC[C@H](N3CCC[C@@H]3C)C2)ccc1NS(=O)(=O)c1ccc(F)c(F)c1` [Example 6, 3,4-Difluoro-N-[2-methyl-6-((2S,3′S)-2-methyl-[1,3′]bipyrrolidinyl-1′-yl)-pyridin-3-yl]-benzenesulfonamide] stands 2.51 nM; under `Cc1nc(N2CC[C@H](N3CCC[C@@H]3C)C2)ccc1NC(=O)c1cccc2ccccc12` [Example 3, Naphthalene-1-carboxylic acid [2-methyl-6-((2S,3′S)-2-methyl-[1,3′]bipyrrolidinyl-1′-yl)-pyridin-3-yl]-amide], 4.24 nM.
Under `CC(=O)N1CCC(C(=O)Nc2ccc(N3CC[C@@H](N4CCC[C@@H]4C)C3)nc2C)CC1` [Example 8, 1-Acetyl-piperidine-4-carboxylic acid [2-methyl-6-((2S,3R)-2-methyl-[1,3′]bipyrrolidinyl-1′-yl)-pyridin-3-yl]-amide] stands 2.46 nM; under `Cc1ccc(F)cc1C(=O)Nc1ccc(N2CC[C@@H](N3CCC[C@@H]3C)C2)nc1C` [Example 9, 5-Fluoro-2-methyl-N-[2-methyl-6-((2S,3′R)-2-methyl-[1,3′]bipyrrolidinyl-1′-yl)-pyridin-3-yl]-benzamide], 195 nM.
Under `Cc1nc(N2CC[C@H](N3CCC[C@@H]3C)C2)ccc1NC(=O)Cc1ccccc1` [Example 4, N-[2-Methyl-6-((2S,3′S)-2-methyl-[1,3′]bipyrrolidinyl-1′-yl)-pyridin-3-yl]-2-phenyl-acetamide] stands 4.9 nM.
The compound `C[C@H]1CCCN1[C@H]1CCN(c2ccc(NC(=O)C3CCOCC3)nc2)C1` [Example 2, Tetrahydro-pyran-4-carboxylic acid [5-((2S,3′S)-2-methyl-[1,3′]bipyrrolidinyl-1′-yl)-pyridin-2-yl]-amide] returned a Ki of 27 nM.
In the case of `Cc1nc(N2CC[C@H](N3CCC[C@@H]3C)C2)ccc1NC(=O)C1CCOCC1` [Example 1, Tetrahydro-pyran-4-carboxylic acid [2-methyl-6-((2S,3′S)-2-methyl-[1,3′]bipyrrolidinyl-1′-yl)-pyridin-3-yl]-amide], the Ki amounted to 2.4 nM.
Under `Cc1nc(N2CC[C@@H](N3CCC[C@@H]3C)C2)ccc1NC(=O)c1c(C)noc1C` [Example 11, 3,5-Dimethyl-isoxazole-4-carboxylic acid [2-methyl-6-((2S,3′R)-2-methyl-[1,3′]bipyrrolidinyl-1′-yl)-pyridin-3-yl]-amide] stands 84 nM.
With `Cc1nc(N2CC[C@@H](N3CCC[C@@H]3C)C2)ccc1NS(=O)(=O)c1ccc(F)cc1` [Example 12, 4-Fluoro-N-[2-methyl-6-((2S,3′R)-2-methyl-[1,3′]bipyrrolidinyl-1′-yl)-pyridin-3-yl]-benzenesulfonamide] the figure was 29.6 nM; with `Cc1nc(N2CC[C@@H](N3CCC[C@@H]3C)C2)ccc1NC(=O)c1cccs1` [Example 10, Thiophene-2-carboxylic acid [2-methyl-6-((2S,3′R)-2-methyl-[1,3′]bipyrrolidinyl-1′-yl)-pyridin-3-yl]-amide], 36 nM.
Under `Cc1nc(N2CC[C@@H](N3CCC[C@@H]3C)C2)ccc1NS(=O)(=O)C1CC1` [Example 13, Cyclopropanesulfonic acid [2-methyl-6-((2S,3′R)-2-methyl-[1,3′]bipyrrolidinyl-1′-yl)-pyridin-3-yl]-amide] stands 37.1 nM.
